Experimental data taken from patent US5977150A, “Amino acid derivatives of diaryl 1,3,4-oxadiazolone” (Bristol-Myers Squibb Company, priority 1999, dated 1999).

Tests used:
[1] = system: cloned mammalian (mSlo or hSlo) BK; assay: Two-electrode voltage clamp of cloned BK-mediated outward current expressed in Xenopus oocytes; assay type: cell-based; conditions: 1 μM; at least 5 oocytes; IBTX 50 nM used to isolate BK current
Method: (§1) The ability of the compound of Example 1 to open BK channels and increase whole-cell outward (K^+) BK-mediated currents was assessed under voltage-clamp conditions by determining their ability to increase cloned mammalian (mSlo or hSlo) BK-mediated outward current heterologously expressed in Xenopus oocytes [Butler, A., et al., Science, 261, pp. 221-224 (1993); and Dworetzky, S. I., et al., Mol. Brain Res., 27, pp.189-193 (1994)]. The two BK constructs employed represent nearly structurally identical homologous proteins, and have proven to be pharmacologically identical in our tests. To isolate BK current from native (background, non-BK) current, the specific and potent BK channel-blocking toxin iberiotoxin (IBTX) [Galvez, A., et al., J. Biol. Chem, 265, pp. 11083-11090 (1990)] was employed at a supramaximal concentration (50 nM). The relative contribution of BK channels current to total outward current was determined by subtraction of the current remaining in the presence of IBTX (non-BK current) from the current profiles obtained in all other experimental conditions (control, drug, and wash). […]

[2] = system: non-BK native currents in the oocytes; assay: Effect on non-BK (IBTX-insensitive) native currents in Xenopus oocytes under voltage clamp; assay type: cell-based; conditions: at the tested concentration (1 μM)
Method: as §1

cortical infarct volume = assay: Focal stroke model: permanent MCA and CCA occlusion with temporary right CCA occlusion; assay type: in vivo; conditions: 10 μg/kg i.v. single bolus two hours after MCA occlusion; infarct measured 24 hours after MCAO; Wistar rat
Method: To determine the ability of the compounds of the present invention to reduce cell loss resulting from neuronal ischemia, a standard focal cerebral ischemia is induced by permanent occlusion of the left middle cerebral artery (MCA) and common carotid artery (CCA) with one hour occlusion of the right CCA in the Wistar rat. The surgeries are performed using the sub-temporal approach of A. Tamura, et al., J. Cereb. Blood Flow Metab., 1, pp. 53-60, (1981) and its modifications [K. Osborne, et al., J. Neurol Neurosurg. Psychiatry, 50, pp. 402-410 (1987) and S. Menzies, et al., Neurosurgery, 31, pp. 100-107, (1992).]
The compound of Example 1 was evaluated in the focal stroke model involving permanent occlusion of the left MCA (MCAO) and CCA (CCAO) and temporary occlusion of the right CCA in the Wistar rat. This procedure results in a reliably large neocortical infarct volume that is measured by means of vital dye exclusion in serial slices through the brain 24 hours after MCAO. In the present test, compounds were administered using an i.v. or i.p. route of administration two hours after occlusion.

[3] = Rapid screen of prodrug hydrolysis and release of the drug in plasma; assay type: in vitro ADME; conditions: fresh rat plasma, 37° C., 10 μg/mL from a 1 mg/mL PEG-400 stock, analysis 5 minutes after incubation, HPLC
Method: A rapid screen to determine the ability of prodrugs to hydrolyze and release the drug (compound of Example 1) is conducted as follows. A 1 mg/mL stock solution of the prodrug is prepared in distilled water or acetonitrile or PEG-400. Plasma from freshly collected rat or human blood is used in this assay. To 1 mL of plasma at 37° C. was added 10 μL of stock solution of prodrug and mixed gently. Immediately after the mixing, 100 μL of plasma was removed and quenched with 300 μL of acetontrile (Zero time sample). Samples were also obtained at 30 minutes and quenched immediately. The quenched samples were centrifuged to obtain a clear supernatant for analysis. The stock solution, T=0 and T=30 samples were analyzed by a HPLC assay that separates the drug from the prodrug. Based on the relative peak areas of prodrug and drug in these samples, different prodrugs are characterized as fast, moderate and slow release agents. For example, in this model, the compound of Example 9 was dissolved in PEG-400 at a concentration of 1 mg/mL and incubated at 10 μg/mL in fresh rat plasma at 37° C.

## O=c1oc(-c2ccc(C(F)(F)F)cc2)nn1Cc1cc(Cl)ccc1O [Example 1, 3-[(5-Chloro-2-hydroxyphenyl)methyl]-5-[4-(trifluoromethyl)phenyl]-1,3,4-oxadiazol-2(3H)-one]
[1]
  BK current, % of control of IBTX-sensitive current: 126 % of control
[2]
  effect on non-BK native currents in the oocytes: did not effect non-BK native currents
Cortical infarct volume
  reduction of cortical infarct volume vs vehicle-treated (water) control: about 18%

## CN[C@@H](CC(C)C)C(=O)Oc1ccc(Cl)cc1Cn1nc(-c2ccc(C(F)(F)F)cc2)oc1=O [Example 9, 3-[(5-Chloro-2-hydroxyphenyl)methyl]-5-[4-(trifluoromethyl)phenyl]-1,3,4-oxadiazol-2(3H)-one, N-Methyl (L)-Leucine ester]
[3]
  conversion of prodrug to drug (compound of Example 1) in plasma: conversion of the compound of Example 9 to the compound of Example 1
